In patent US6593335B1, “Potassium channel openers” (Abbott Laboratories, priority 1997, dated 2003):
Where “and” joins values, the source holds several entries; their conditions need not be identical. Equal entries are not always repeated.

Assays:
potassium channels [1] = target: potassium channels (Cavia porcellus, UniProt A0A286XYR9); experiment: Membrane hyperpolarization (MHP) assay in primary cultured guinea-pig urinary bladder (GPB) cells, DiBAC(4)3 FLIPR; type: cell-based; details: for MHP in GPB Cells Maximal Response (% P1075): maximal steady-state hyperpolarization relative to reference P1075 (assigned as 100%); for EC50: concentration that elicits 50% of the maximal response for the test sample
Chain of potassium channels (Cavia porcellus, UniProt A0A286XYR9) (A0A286XYR9 1-1546): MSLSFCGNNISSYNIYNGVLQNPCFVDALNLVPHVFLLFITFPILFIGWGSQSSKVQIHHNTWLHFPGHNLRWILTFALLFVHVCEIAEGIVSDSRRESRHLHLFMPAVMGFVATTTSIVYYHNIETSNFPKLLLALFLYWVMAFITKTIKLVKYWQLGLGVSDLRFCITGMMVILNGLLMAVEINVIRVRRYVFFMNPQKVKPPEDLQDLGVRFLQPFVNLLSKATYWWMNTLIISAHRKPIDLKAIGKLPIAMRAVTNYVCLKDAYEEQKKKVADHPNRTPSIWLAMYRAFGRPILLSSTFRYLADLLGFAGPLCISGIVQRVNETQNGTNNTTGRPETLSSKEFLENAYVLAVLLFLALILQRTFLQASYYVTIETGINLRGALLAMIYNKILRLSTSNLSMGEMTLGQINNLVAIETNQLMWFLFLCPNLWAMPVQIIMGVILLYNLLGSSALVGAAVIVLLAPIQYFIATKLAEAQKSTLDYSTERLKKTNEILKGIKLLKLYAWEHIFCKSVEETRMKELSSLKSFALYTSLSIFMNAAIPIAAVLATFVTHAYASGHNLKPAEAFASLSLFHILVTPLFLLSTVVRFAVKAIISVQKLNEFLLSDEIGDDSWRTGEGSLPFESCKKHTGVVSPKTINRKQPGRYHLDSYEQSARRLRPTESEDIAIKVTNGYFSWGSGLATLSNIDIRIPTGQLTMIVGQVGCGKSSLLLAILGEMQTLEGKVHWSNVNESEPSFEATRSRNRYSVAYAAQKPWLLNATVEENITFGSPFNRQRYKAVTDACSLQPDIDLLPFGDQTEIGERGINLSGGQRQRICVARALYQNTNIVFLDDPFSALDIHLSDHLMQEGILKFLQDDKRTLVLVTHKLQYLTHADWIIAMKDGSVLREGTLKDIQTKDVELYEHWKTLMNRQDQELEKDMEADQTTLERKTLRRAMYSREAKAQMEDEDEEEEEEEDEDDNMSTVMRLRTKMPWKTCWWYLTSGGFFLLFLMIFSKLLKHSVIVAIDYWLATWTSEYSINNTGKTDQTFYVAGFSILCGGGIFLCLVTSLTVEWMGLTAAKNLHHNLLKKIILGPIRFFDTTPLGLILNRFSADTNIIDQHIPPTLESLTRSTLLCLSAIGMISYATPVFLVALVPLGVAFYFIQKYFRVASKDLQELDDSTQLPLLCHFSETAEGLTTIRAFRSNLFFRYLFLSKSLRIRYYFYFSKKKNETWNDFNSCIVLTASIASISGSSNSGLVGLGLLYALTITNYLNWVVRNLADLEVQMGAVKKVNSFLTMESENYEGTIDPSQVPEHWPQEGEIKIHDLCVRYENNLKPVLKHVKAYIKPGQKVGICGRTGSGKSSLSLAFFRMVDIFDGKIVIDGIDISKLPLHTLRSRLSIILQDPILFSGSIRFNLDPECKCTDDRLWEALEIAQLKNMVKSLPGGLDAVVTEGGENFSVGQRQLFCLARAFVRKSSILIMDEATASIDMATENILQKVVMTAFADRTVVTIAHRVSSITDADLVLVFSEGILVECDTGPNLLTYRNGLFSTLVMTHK
Chain of potassium channels (Cavia porcellus, UniProt A0A286XYR9) (Q9JHJ9 whole entry partner): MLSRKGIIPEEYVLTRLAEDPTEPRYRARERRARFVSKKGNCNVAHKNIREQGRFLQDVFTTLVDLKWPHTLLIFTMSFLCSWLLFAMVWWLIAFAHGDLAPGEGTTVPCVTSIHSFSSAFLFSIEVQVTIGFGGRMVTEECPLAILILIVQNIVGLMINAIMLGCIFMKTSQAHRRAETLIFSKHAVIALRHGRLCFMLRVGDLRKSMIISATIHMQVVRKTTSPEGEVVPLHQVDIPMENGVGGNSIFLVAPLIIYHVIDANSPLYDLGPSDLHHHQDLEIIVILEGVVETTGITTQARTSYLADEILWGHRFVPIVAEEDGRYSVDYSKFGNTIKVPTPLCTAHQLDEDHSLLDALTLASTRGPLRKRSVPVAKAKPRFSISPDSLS
Method: Determination of Potassium Channel Opening Activity Membrane Hyperpolarization Assays Compounds were evaluated for potassium channel opening activity using the rat thoracic aorta smooth muscle AI 0 cell line or primary cultured guinea-pig urinary bladder (GPB) cells. The AI0 cell line was purchased from the American Type Culture Collection (Rockville, MD; Cat # 30-2002). […] Louis, MO) and 0.2 mg/mL ronase (Calbiochem, La Jolla, CA) with continuous stirring in a cell incubator for 30 minutes. The mixture was then centrifuged at 1300 x g for 5 minutes, and the pellet resuspended in Dulbecco's PBS (GIBCO, Gaithersburg, MD) and recentrifuged to remove residual enzyme. […] Cells were confirmed to be of smooth muscle type by cytoskeletal staining using a monoclonal mouse anti human-a-smooth muscle actin (Biomeda, Foster City, CA). Functional activity at potassium channels was measured by evaluating changes in membrane potential using the bis-oxonol dye DiBAC(4)3 (Molecular Probes) in a 96-well cell-based kinetic assay system, Fluorescent Imaging Plate Reader (FLIPR) (K.S. Schroeder et al., J. Biomed. Screen., v. I pp. 75-81 (1996)). DiBAC(4)3 is an anionic potentiometric probe which partitions between cells and extracellular solution in a membrane potential-dependent manner. With increasing membrane potential (for example, K+depolarization), the probe further partitions into the cell; this is measured as an increase in fluorescence due to dye interaction with intracellular lipids and proteins. Conyersely, decreasing membrane potential (hyperpolarization by potassium channel openers) evokes a decrease in fluorescence. […] HEPES, 20; NaCl, 120; KCl, 2; CaC'2, 2; MgCl2, 1; glucose, 5; pH 7.4 at 25 ° C.) containing 5 µM DiBAC(4)3 and incubated with […] of the buffer in a cell incubator for 30 minutes at 37 OC to ensure dye distribution across the membrane. After recording the baseline fluorescence for 5 minutes, the reference or test compounds, prepared at 10 times the concentration in the assay buffer, were added directly to the wells. Changes in fluorescence were monitored for an additional 25 minutes. […] Pharmacol., v. 43 pp. 474-481 (1993)). Routinely, five concentrations of […] or test compounds (log or half-log dilutions) were evaluated and the maximal steady-state hyperpolarization values (expressed as % relative to […]) plotted as a function of concentration. […] The maximal response of each compound (expressed as % relative to […]) is reported.

potassium channels [2] = target: potassium channels (Rattus norvegicus, UniProt Q63563); experiment: Membrane hyperpolarization (MHP) assay in A10 cells, DiBAC(4)3 FLIPR; type: cell-based; details: for EC50: concentration that elicits 50% of the maximal response for the test sample; for MHP in A10 Cells Maximal Response (% P1075): maximal steady-state hyperpolarization relative to reference P1075 (assigned as 100%)
Chain of potassium channels (Rattus norvegicus, UniProt Q63563) (Q63563 whole entry): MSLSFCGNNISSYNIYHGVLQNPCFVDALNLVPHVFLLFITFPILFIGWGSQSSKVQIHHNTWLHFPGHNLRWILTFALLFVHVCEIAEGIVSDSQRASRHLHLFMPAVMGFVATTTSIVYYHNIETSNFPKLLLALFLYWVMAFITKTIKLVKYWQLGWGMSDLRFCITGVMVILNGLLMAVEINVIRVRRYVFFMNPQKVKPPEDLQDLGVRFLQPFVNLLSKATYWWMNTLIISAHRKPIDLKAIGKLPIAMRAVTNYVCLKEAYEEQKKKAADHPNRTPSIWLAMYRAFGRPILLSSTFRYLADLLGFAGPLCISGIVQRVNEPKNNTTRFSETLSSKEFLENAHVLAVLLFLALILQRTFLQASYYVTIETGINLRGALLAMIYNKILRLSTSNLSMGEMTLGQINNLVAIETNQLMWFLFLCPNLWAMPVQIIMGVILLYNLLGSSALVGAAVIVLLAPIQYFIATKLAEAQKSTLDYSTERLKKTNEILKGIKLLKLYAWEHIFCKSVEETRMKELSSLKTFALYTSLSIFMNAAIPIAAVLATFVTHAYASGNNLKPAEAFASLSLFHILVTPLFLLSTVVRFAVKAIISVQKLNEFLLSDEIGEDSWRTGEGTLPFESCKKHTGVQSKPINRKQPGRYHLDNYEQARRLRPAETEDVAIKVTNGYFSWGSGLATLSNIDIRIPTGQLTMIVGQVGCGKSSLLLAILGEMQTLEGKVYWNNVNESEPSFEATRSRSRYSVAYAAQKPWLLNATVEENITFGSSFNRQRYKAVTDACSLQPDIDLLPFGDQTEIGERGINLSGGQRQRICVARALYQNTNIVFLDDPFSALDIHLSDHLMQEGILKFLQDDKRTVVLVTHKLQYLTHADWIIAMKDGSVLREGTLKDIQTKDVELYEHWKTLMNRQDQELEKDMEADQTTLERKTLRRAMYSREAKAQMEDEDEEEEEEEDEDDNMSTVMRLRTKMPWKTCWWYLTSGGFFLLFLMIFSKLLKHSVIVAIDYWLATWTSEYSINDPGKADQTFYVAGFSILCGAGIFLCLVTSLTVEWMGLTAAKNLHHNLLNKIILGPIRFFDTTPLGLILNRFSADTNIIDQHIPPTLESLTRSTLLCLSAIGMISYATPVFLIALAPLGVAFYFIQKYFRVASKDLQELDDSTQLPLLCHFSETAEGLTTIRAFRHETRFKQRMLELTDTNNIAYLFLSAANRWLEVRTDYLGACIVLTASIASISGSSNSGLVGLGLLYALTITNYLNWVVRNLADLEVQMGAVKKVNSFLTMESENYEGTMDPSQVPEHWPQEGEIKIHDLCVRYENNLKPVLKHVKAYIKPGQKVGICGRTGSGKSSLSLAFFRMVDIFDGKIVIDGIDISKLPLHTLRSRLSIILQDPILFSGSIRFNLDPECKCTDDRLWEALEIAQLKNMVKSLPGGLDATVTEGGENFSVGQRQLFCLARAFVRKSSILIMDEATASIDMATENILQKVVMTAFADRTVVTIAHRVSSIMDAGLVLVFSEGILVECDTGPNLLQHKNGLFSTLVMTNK
Chain of potassium channels (Rattus norvegicus, UniProt Q63563) (Q63664 whole entry partner): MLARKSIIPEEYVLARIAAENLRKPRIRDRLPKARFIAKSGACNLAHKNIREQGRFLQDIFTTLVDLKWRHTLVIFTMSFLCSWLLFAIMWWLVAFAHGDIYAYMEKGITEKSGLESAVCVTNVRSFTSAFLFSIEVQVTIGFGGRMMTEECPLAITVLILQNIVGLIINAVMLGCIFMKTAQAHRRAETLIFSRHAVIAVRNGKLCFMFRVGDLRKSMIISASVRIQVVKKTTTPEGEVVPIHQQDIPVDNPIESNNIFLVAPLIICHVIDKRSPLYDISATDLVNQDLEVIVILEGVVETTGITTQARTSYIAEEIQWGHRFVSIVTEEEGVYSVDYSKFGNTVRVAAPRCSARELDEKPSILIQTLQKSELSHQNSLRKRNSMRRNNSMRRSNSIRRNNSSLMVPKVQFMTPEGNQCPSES
Method: Determination of Potassium Channel Opening Activity Membrane Hyperpolarization Assays Compounds were evaluated for potassium channel opening activity using the rat thoracic aorta smooth muscle AI 0 cell line or primary cultured guinea-pig urinary bladder (GPB) cells.
The AI0 cell line was purchased from the American Type Culture Collection (Rockville, MD; Cat # 30-2002). Cells were grown in 96-well clear-bottomed black plates (Packard) in culture media (composition: Dulbecco′s modified Eagle′s medium supplemented with 20% Fetal Bovine Serum, 100 units/mL penicillin, 100 units/mL streptomycin and 0.25 […]) at 37 ° C. with 5% C02 in a humidified chamber to form a confluent monolayer. 25 For the preparation of urinary bladder smooth muscle cells, urinary bladders were removed from male guinea-pigs (Hartley, Charles River, Wilmington, MA) weighing 300-400 g and placed in ice-cold Ca^2+-free Krebs solution (Composition, mM: KCl, 2.7; KH2PO4, 1.5; NaCl, 75; Na2HPO4, 9.6; Na2HPO4.7H2O, 8; MgSO4, 2; glucose, 5;HEPES, 10; pH 7.4). Cells were isolated by enzymatic dissociation as previously escribed with minor modifications (Klockner, U. and Isenberg, G., Pflugers Arch. 1985, 05, 329-339). The bladder was cut into small sections and incubated in 5 mL of the reb′s solution containing I mg/mL collagenase (Sigma, St. Louis, MO) and 0.2 mg/mL ronase (Calbiochem, La Jolla, CA) with continuous stirring in a cell incubator for 30 minutes. […]
Functional activity at potassium channels was measured by evaluating changes in membrane potential using the bis-oxonol dye DiBAC(4)3 (Molecular Probes) in a 96-well cell-based kinetic assay system, Fluorescent Imaging Plate Reader (FLIPR) (K.S. Schroeder et al., J. Biomed. Screen., v. I pp. 75-81 (1996)). […] With increasing membrane potential (for example, K+depolarization), the probe further partitions into the cell; this is measured as an increase in fluorescence due to dye interaction with intracellular lipids and proteins.
Conyersely, decreasing membrane potential (hyperpolarization by potassium channel openers) evokes a decrease in fluorescence.
Confluent smooth muscle A10 or guinea-pig urinary bladder cells cultured in black clear-bottomed 96-well plates were rinsed twice with […] assay buffer (composition, mM: HEPES, 20; NaCl, 120; KCl, 2; CaC′2, 2; MgCl2, 1; glucose, 5; pH 7.4 at 25 ° C.) containing 5 µM DiBAC(4)3 and incubated with […] of the buffer in a cell incubator for 30 minutes at 37 OC to ensure dye distribution across the membrane. After recording the baseline fluorescence for 5 minutes, the reference or test compounds, prepared at 10 times the concentration in the assay buffer, were added directly to the wells. Changes in fluorescence were monitored for an additional 25 minutes. […]

potassium channels [3] = target: potassium channels (Sus scrofa, UniProt F1SR11); experiment: Functional potassium channel opening activity in isolated Landrace pig bladder strips (field-stimulated twitch); details: for Landrace Pig Bladder Index: ED50 for P1075 divided by ED50 for the test agonist, averaged over tissues; for Landrace Pig Bladder Efficacy (% P1075) / Emax: maximal efficacy relative to P1075, field stimulation 0.05Hz, 0.5 milli-seconds at 20 volts; for Landrace Pig Bladder pD2: negative logarithm of ED50; for Emax: pig
Summary of the method: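 Landrace pig bladder strips with the mucosa removed were field-stimulated (0.05 Hz, 0.5 ms, 20 V) in Krebs Ringer bicarbonate containing propranolol, and primed with 80 mM KCl. Cumulative concentration-response curves gave maximal efficacy relative to a reference potassium channel opener, pD2, and a potency index (reference ED50/test ED50) averaged across tissues.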

potassium channels [4] = target: potassium channels (Homo sapiens, UniProt O60706); experiment: Functional potassium channel opening activity in isolated human bladder strips (25 mM KCl contracted); details: human; maximal efficacy relative to P1075; detrusor strips contracted with 25 mM KCl
Method: Human bladders were obtained from women greater than 45 years old. The human tissue was obtained from the Anatomic Gift Foundation, Phoenix AZ. Human tissue was received via overnight delivery on wet ice placed into Krebs Ringer bicarbonate solution (composition, mM: NaCl, 120; NaHCO3, 20; dextrose, 11; KCl, 4.7; 20 CaC′2, 2.5; MgSO4, 1.5; KH2PO4, 1.2; K2EDTA, 0.01, equilibrated with 5% C02/95% 02 pH 7.4 at 37 ° C.). Propranolol (0.004 mM) was included in all of the assays to block […]. The trigonal and dome portions were discarded. Strips 3-5 mm wide and 20 mm long were prepared from the remaining tissue cut in a circular fashion. The mucosal layer was removed. For the human detrusor strips the tissues were contracted 25 with 25 mM KCl which produced a steady state tension of approximately 400 centigrams. […]
After a 60 minute rinsing period, a concentration response curve (cumulative) was 30 generated for the test agonist in the same fashion as that used for the control agonist P1075. The maxximal efficacies of the compounds (expressed as % relative to P1075) are reported. […] Agonist potencies were also expressed as an index relative to PI1075. The index was calculated by dividing the ED50 for P1075 by the ED50 for the test agonist in a given tissue. […]

Compound | MHP in GPB Cells Maximal Response (% P1075) (potassium channels [1]) | EC50 (potassium channels [2]) [µM] | MHP in A10 Cells Maximal Response (% P1075) (potassium channels [2]) | EC50 (potassium channels [1]) [µM] | Landrace Pig Bladder Index (potassium channels [3]) | Landrace Pig Bladder Efficacy (% P1075) (potassium channels [3]) | Landrace Pig Bladder pD2 (potassium channels [3]) | Emax (potassium channels [4]) [%] | Emax (potassium channels [3]) [%] | melting point [°C]
8-(3-bromo-4-fluorophenyl)-6-trifluoromethyl-5,8-dihydrothiopyrano[3 .2-b]pyridine, 1,1-dioxide [Example 159] | 100 % P1075 | – | – | – | – | – | – | – | – | –
O=C1CCCC2=C1C(c1cccc(Br)c1)C1=C(CCCS1(=O)=O)N2 (stereo not drawn) [Example 8, 10-(3-bromophenyl)-3,4,6,7,8,10-hexahydro-2H-thiopyrano [3,2-b]quinolin-9(5H)-one, 1,1-dioxide] | 100 % P1075 | 7.5 | 66 | 2.5 | 0.025 | 95 | 5.0 | – | – | –
O=C1CCCC2=C1C(c1cccc(F)c1)C1=C(CCCS1(=O)=O)N2 (stereo not drawn) [Example 11, 10-(3-fluorophenyl)-3,4,6,7,8,10-hexahydro-2H-thionyrano [3,2-b]quinolin-9(5H)-one, 1,1-dioxide] | 29 % P1075 | 11 | 42 | 20 | 0.0021 | 100 | 4.1 | – | – | –
O=C1CCCC2=C1C(c1ccc(Cl)c([N+](=O)[O-])c1)C1=C(CCCS1(=O)=O)N2 (stereo not drawn) [Example 19, 10-(4-chloro-3-nitrolphenyl)-3,4,6,7,8,10-hexahydro-2H-thiopyrano [3,2-b]quinolin-9(5H)-one, 1,1-dioxide] | – | – | – | – | 0.13 | – | 6.0 | 100 | 94 | –
O=S1(=O)CCCC2=C1C(c1ccc(F)c(Br)c1)C1=C(CCCS1(=O)=O)N2 [Example 54, 10-(3-bromo-4-fluorophenyl)-3,4,6,7,8,10-hexahydro-2H,5H-dithiopyrano [3,2-b:2′,3′-e]pyridine, 1,1,9,9-tetraoxide] | 107 % P1075 and 133 % P1075 | – | – | – | 0.015 | 89 | 4.9 | – | – | –
CC1(C)CCC2=C(C1=O)C(c1ccc(F)c(Br)c1)C1=C(CCS1(=O)=O)N2 (stereo not drawn) [Example 116, 9-(3-bromo-4-fluorophenyl)-7,7-dimethyl-2,3,5,6,7,9-hexahydrothieno[3.2-b]quinolin-8(4H)-one, 1,1-dioxide] | – | – | – | – | 0.16 | – | 6.3 | – | 100 | > 270
O=S1(=O)CCC2=C1C(c1ccc(Cl)c(C(F)(F)F)c1)C1=C(CCS1(=O)=O)N2 [Example 122] | – | – | – | – | 0.012 | – | 4.8 | – | 94 | > 260
O=S1(=O)CCC2=C1C(c1ccc3nonc3c1)C1=C(CCS1(=O)=O)N2 [Example 123] | – | – | – | – | 0.0047 | – | 4.5 | – | 98 | > 260
O=S1(=O)CCC2=C1C(c1ccc(Br)c(Br)c1)C1=C(CCS1(=O)=O)N2 [Example 124] | – | – | – | – | 0.025 | – | 5.3 | – | 99 | > 260
CC1(C)CCC2=C(C1=O)C(c1cccc([N+](=O)[O-])c1)C1=C(CCS1(=O)=O)N2 (stereo not drawn) [Example 189, 7,7-dimethyl-9-(3-nitrophenyl)-2,3,5,6,7,,9-hexahydrothieno[3.2-b]guinolin-8(4H)-one 1,1-dioxide] | 51 % P1075 | – | – | 10 | – | – | – | – | – | –
CC1(C)CCC2=C(C1=O)C(c1cc(Cl)cc(Br)c1O)C1=C(CCS1(=O)=O)N2 (stereo not drawn) [Example 199, 9-(3-bromo-5-chloro-2-hydroxyphenyl)-7,7-dimethyl-2,3.5.6,7,9-hexahydrothieno[3.2-b]quinolin-8(4H)-one 1,1-dioxide] | 12 % P1075 | – | – | > 10 | – | – | – | – | – | –
CC1(C)CCC2=C(C1=O)C(c1cc(Br)c(O)c(Br)c1)C1=C(CCS1(=O)=O)N2 (stereo not drawn) [Example 207] | 92 % P1075 | – | – | 1.2 | – | – | – | – | – | –
